# In PubChem BioAssay AID2060341 (Molecular Pharmacology Branch, DTP, NCI, 2025):
# “And” between values parts separate entries of the source, which are not always exact repeats. Equal entries are not always repeated.
# System: 327498-153-R-J2-PDC multicell spheroid viability
# Experiment: Anticancer human tumor 327498-153-R-J2-PDC patient-derived uterine carcinosarcoma cell line growth inhibition [IpAb]
# Conditions: for viability, T/C: stronger effect = lower value
# Method in brief: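 Combinations with ipatasertib or abemaciclib were tested on tumour spheroids holding HUVEC (25%) and MSC (15%) alongside 60% malignant cells. Top concentration was at or near clinical Cmax (10 microM if undefined), descending in half-log steps.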
# [1] = curve of first compound, second compound 0.1 µM
# [2] = curve of first compound, second compound 0.316 µM
# [3] = curve of first compound, second compound 1 µM
# [4] = second compound 0.1 µM, first compound 0.0316 µM
# [5] = second compound 0.1 µM, first compound 0.1 µM
# [6] = second compound 0.316 µM, first compound 0.0316 µM
# [7] = second compound 0.316 µM, first compound 0.1 µM
# [8] = second compound 1 µM, first compound 0.0316 µM
# [9] = second compound 1 µM, first compound 0.1 µM
# 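Note: spheroids exposed to agents for 7 days.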
# 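Throughout, for viability, T/C: 100% = DMSO vehicle control viability.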
compound,measurement,setting,value
Cn1ncnc1[C@H]1c2n[nH]c(=O)c3cc(F)cc(c23)N[C@@H]1c1ccc(F)cc1,"viability, T/C",compound 0.000316 µM,109% and 99%
same,"viability, T/C",compound 0.001 µM,106% and 99.6%
same,"viability, T/C",compound 0.00316 µM,99.2% and 92.1%
same,"viability, T/C",compound 0.01 µM,74.8% and 65.7%
same,"viability, T/C",compound 0.0316 µM,47.8% and 39%
same,"viability, T/C",compound 0.1 µM,26.5% and 21.4%
same,IC50,curve of compound,28 nM and 19.6 nM
CC(=O)c1c(C)c2cnc(Nc3ccc(N4CCNCC4)cn3)nc2n(C2CCCC2)c1=O,"viability, T/C",compound 0.000949 µM,106% and 97.8%
same,"viability, T/C",compound 0.003 µM,96.7% and 103%
same,"viability, T/C",compound 0.00949 µM,99.7% and 95.5%
same,"viability, T/C",compound 0.03 µM,79.2% and 89.8%
same,"viability, T/C",compound 0.0949 µM,70.2% and 70.4%
same,"viability, T/C",compound 0.3 µM,71% and 56.5%
same,IC50,curve of compound,> 300 nM
Cn1nccc1Nc1nccc(-c2ccn(C(CO)c3ccc(Cl)c(F)c3)c(=O)c2)n1 (stereo unspecified) + CCN1CCN(Cc2ccc(Nc3ncc(F)c(-c4cc(F)c5nc(C)n(C(C)C)c5c4)n3)nc2)CC1,IC50,"curve of first compound, second compound 0.01 µM",3680 nM
same,IC50,"curve of first compound, second compound 0.0316 µM",1960 nM
same,IC50,[1],657 nM
same,IC50,[2],< 31.6 nM
same,IC50,[3],< 31.6 nM
same,"viability, T/C","second compound 0.01 µM, first compound 0.0316 µM",78%
same,"viability, T/C","second compound 0.01 µM, first compound 0.1 µM",70.3%
same,"viability, T/C","second compound 0.01 µM, first compound 0.316 µM",67%
same,"viability, T/C","second compound 0.01 µM, first compound 1 µM",74.3%
same,"viability, T/C","second compound 0.01 µM, first compound 3.16 µM",53.6%
same,"viability, T/C","second compound 0.01 µM, first compound 10 µM",26.7%
same,"viability, T/C","second compound 0.0316 µM, first compound 0.0316 µM",69.1%
same,"viability, T/C","second compound 0.0316 µM, first compound 0.1 µM",55.4%
same,"viability, T/C","second compound 0.0316 µM, first compound 0.316 µM",52.8%
same,"viability, T/C","second compound 0.0316 µM, first compound 1 µM",57.9%
same,"viability, T/C","second compound 0.0316 µM, first compound 3.16 µM",48%
same,"viability, T/C","second compound 0.0316 µM, first compound 10 µM",30.4%
same,"viability, T/C",[4],55.6%
same,"viability, T/C",[5],50%
same,"viability, T/C","second compound 0.1 µM, first compound 0.316 µM",48.5%
same,"viability, T/C","second compound 0.1 µM, first compound 1 µM",49.2%
same,"viability, T/C","second compound 0.1 µM, first compound 3.16 µM",44%
same,"viability, T/C","second compound 0.1 µM, first compound 10 µM",26.4%
same,"viability, T/C",[6],53.5%
same,"viability, T/C",[7],42.6%
same,"viability, T/C","second compound 0.316 µM, first compound 0.316 µM",42.4%
same,"viability, T/C","second compound 0.316 µM, first compound 1 µM",44.4%
same,"viability, T/C","second compound 0.316 µM, first compound 3.16 µM",41.5%
same,"viability, T/C","second compound 0.316 µM, first compound 10 µM",28.1%
same,"viability, T/C",[8],46.1%
same,"viability, T/C",[9],45.3%
same,"viability, T/C","second compound 1 µM, first compound 0.316 µM",40.3%
same,"viability, T/C","second compound 1 µM, first compound 1 µM",43.6%
same,"viability, T/C","second compound 1 µM, first compound 3.16 µM",45.3%
same,"viability, T/C","second compound 1 µM, first compound 10 µM",30.4%
Cn1ncc(Cl)c1-c1cc(C(=O)NC(CN)Cc2cccc(F)c2)sc1Cl (stereo unspecified),"viability, T/C",compound 0.0316 µM,98.6% and 91.8%
same,"viability, T/C",compound 0.1 µM,85.3% and 76%
same,"viability, T/C",compound 0.316 µM,74.4% and 67.2%
same,"viability, T/C",compound 1 µM,53.1% and 49%
same,"viability, T/C",compound 3.16 µM,42.2% and 36.7%
same,"viability, T/C",compound 10 µM,0.31% and 0.21%
same,IC50,curve of compound,1480 nM and 1100 nM
CC(C)n1nc(-c2ccc3oc(N)nc3c2)c2c(N)ncnc21 + CC(C)NCC(C(=O)N1CCN(c2ncnc3c2C(C)CC3O)CC1)c1ccc(Cl)cc1,IC50,[1],5.3 nM
same,IC50,[2],1.76 nM
same,IC50,[3],0.442 nM
same,IC50,"curve of first compound, second compound 3.16 µM",< 0.316 nM
same,IC50,"curve of first compound, second compound 10 µM",< 0.316 nM
same,"viability, T/C","second compound 0.1 µM, first compound 0.000316 µM",83.5%
same,"viability, T/C","second compound 0.1 µM, first compound 0.001 µM",80%
same,"viability, T/C","second compound 0.1 µM, first compound 0.00316 µM",60.3%
same,"viability, T/C","second compound 0.1 µM, first compound 0.01 µM",36.6%
same,"viability, T/C",[4],20.7%
same,"viability, T/C",[5],15.7%
same,"viability, T/C","second compound 0.316 µM, first compound 0.000316 µM",74.6%
same,"viability, T/C","second compound 0.316 µM, first compound 0.001 µM",56.5%
same,"viability, T/C","second compound 0.316 µM, first compound 0.00316 µM",44%
same,"viability, T/C","second compound 0.316 µM, first compound 0.01 µM",24.4%
same,"viability, T/C",[6],16.6%
same,"viability, T/C",[7],13.3%
same,"viability, T/C","second compound 1 µM, first compound 0.000316 µM",55.1%
same,"viability, T/C","second compound 1 µM, first compound 0.001 µM",36.9%
same,"viability, T/C","second compound 1 µM, first compound 0.00316 µM",28.4%
same,"viability, T/C","second compound 1 µM, first compound 0.01 µM",16.8%
same,"viability, T/C",[8],10.6%
same,"viability, T/C",[9],11%
same,"viability, T/C","second compound 3.16 µM, first compound 0.000316 µM",39.2%
same,"viability, T/C","second compound 3.16 µM, first compound 0.001 µM",29.1%
same,"viability, T/C","second compound 3.16 µM, first compound 0.00316 µM",19.9%
same,"viability, T/C","second compound 3.16 µM, first compound 0.01 µM",11.5%
same,"viability, T/C","second compound 3.16 µM, first compound 0.0316 µM",8.42%
same,"viability, T/C","second compound 3.16 µM, first compound 0.1 µM",7.91%
same,"viability, T/C","second compound 10 µM, first compound 0.000316 µM",26.9%
same,"viability, T/C","second compound 10 µM, first compound 0.001 µM",24%
same,"viability, T/C","second compound 10 µM, first compound 0.00316 µM",13.7%
same,"viability, T/C","second compound 10 µM, first compound 0.01 µM",9.73%
same,"viability, T/C","second compound 10 µM, first compound 0.0316 µM",6.51%
same,"viability, T/C","second compound 10 µM, first compound 0.1 µM",6.09%
